PubChem BioAssay (NCI)
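Dose response: 5 concentrations. Exposure: 48 h. Format: 96-well plates. Endpoint: linear interpolation; highest concentration if not reached. Abbreviation: GI50, concentration required for 50% inhibition of growth. At the TGI there is no net growth.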

Tests used:
Test in all cases: NCI-60 cell line screen, 48 h
[1] = system: ACHN renal
[2] = system: HOP-92 NSCLC
[3] = system: HCC-2998 colon
[4] = system: IGROV1 ovarian
[5] = system: MDA-N
[6] = system: UACC-62 melanoma

Row | Compound | TGI [1] [µM] | TGI [2] [µM] | TGI [3] [µM] | TGI [4] [µM] | TGI [5] [µM] | TGI [6] [µM] | GI50 [1] [µM] | GI50 [2] [µM] | GI50 [3] [µM] | GI50 [6] [µM]
1 | S=C(N/N=C\C=N/NC(=S)N1CCCCCC1)N1CCCCCC1 | > 100 | > 100 | > 100 | > 100 | > 100 | > 100 |  |  |  | 
2 | CC(=O)/C=C/C=C(\C)CC/C=C(\C)CC(C)C | > 100 | 27.4 | 34.7 | > 100 | > 100 | 49.2 |  |  |  | 
3 | CCOC(=O)c1ccc(C(=O)C(C(C)=O)C(=O)OC(C)(C)C)n1C (stereo not given) | > 100 |  | > 100 | > 100 | > 100 | > 100 |  |  |  | 
4 | CC(=O)O[C@H]1C#C/C=C\C#CC[C@@H]2C(=O)N(C(=O)OC(C)(C)C)[C@@H]12 | 28.8 | 96.8 | > 67.5 | > 100 | > 100 | > 100 |  |  |  | 
5 | CC[C@]12C=CCN3CCC4(c5cc(N=Nc6ccccc6)c(OC)cc5N(C)[C@H]4[C@@](O)(C(=O)OC)[C@@H]1OC(C)=O)[C@@H]32 (stereo not given in full) | 30.1 | 30.2 | 36.3 | 32.5 | 35.8 | 29.4 |  |  |  | 
6 | O=C(c1ccccc1)c1c(C(F)(F)F)n([O-])c2ccccc2[n+]1=O |  | 1.2 |  | 0.489 |  | 3.52 |  |  |  | 
7 | Cc1nnc2cc(C(=O)O)c3ccccc3n2c1=O |  | > 10 | > 10 | > 10 | > 10 | > 10 |  |  |  | 
8 | O=C(O)C(CCc1ccccn1)c1ccccc1 (stereo not given) | > 100 | > 100 | > 100 | > 100 | > 100 | > 100 |  |  |  | 
9 | C#CCNC(Cc1cnc[nH]1)C(=O)O (stereo not given) | > 100 | > 100 |  | > 100 | > 100 | > 100 |  |  |  | 
10 | Cc1ccc(S(=O)(=O)n2cncc2CO)cc1 | > 100 |  | > 100 | > 100 | > 100 | > 100 |  |  |  | 
11 | Cn1c(=O)c2c(-c3ccccc3)onc2n(C)c1=O | > 100 | > 100 | 90.2 | 55.3 | > 100 | > 100 |  |  |  | 
12 | CN(C)CCOC(=O)COc1ccc(Cl)cc1 | > 100 | > 100 | > 100 | > 100 | > 100 | > 100 |  |  |  | 
13 | CC(CCC(=O)O)[C@H]1CCC2[C@H]3C(CC[C@@]21C)[C@@]1(C)CCC(O)C[C@H]1C[C@@H]3O (stereo not given in full) | > 100 | > 100 | > 100 | > 100 | > 100 | > 100 |  |  |  | 
14 | Cc1cc(S(=O)(=O)Nc2nnc3c(C(F)(F)F)cc(Cl)cn23)c(S)cc1Cl | > 100 | > 100 | > 100 | > 100 | > 100 | > 100 |  |  |  | 
15 | N#CCCC1C(C#N)C2CC1C1C3C=CC(C3)C21 (stereo not given) | > 100 | > 100 | > 100 | > 100 | > 100 | > 100 |  |  |  | 
16 | CCOC(=O)c1cc2c(OC(C)=O)ccc(OC(C)=O)c2s1 | 2.98 | 3.16 | 22.2 | 6.52 |  | 4.08 |  |  |  | 

Row | Compound | TGI [1] [µM] | TGI [2] [µM] | TGI [3] [µM] | TGI [4] [µM] | TGI [5] [µM] | TGI [6] [µM] | GI50 [1] [µM] | GI50 [2] [µM] | GI50 [3] [µM] | GI50 [6] [µM]
17 | O=C(Nn1c(-c2ccccc2)nc2ccccc2c1=O)c1ccccn1 | > 100 | > 100 | > 100 | > 100 |  | > 100 |  |  |  | 
18 | Cc1cc(Cc2c(F)c(F)c(Cc3cc(C)no3)c(F)c2F)on1 | > 100 | > 100 |  | > 100 | > 100 | > 100 |  |  |  | 
19 | Clc1nc(-[n+]2ccc(-c3ccncc3)cc2)nc(Nc2ccccc2)c1Cl | > 100 | > 100 | > 100 | > 100 | > 100 | > 100 |  |  |  | 
20 | OCC1OC(n2cnc3cccnc32)CC1O (stereo not given) | > 100 | > 100 | > 100 | > 100 | > 100 | > 100 |  |  |  | 
21 | Nc1nc(Cl)cc(N=Nc2ccccc2)n1 | 97.2 | 7.53 |  | 51.3 |  | > 100 |  |  |  | 
22 | O=C(O)/C=C(/CC(=O)O)C(=O)O | 33.3 |  | 90.4 | 42.2 | 54.6 | 36.7 |  |  |  | 
23 | O=C(c1ccc2ccccc2c1)C1S(=O)(=O)OCCOS1(=O)=O | > 100 |  | > 100 |  | > 100 |  |  |  |  | 
24 | O=C1c2[nH]cc(CN3CCNCC3)c2C(=O)c2c1c(O)c1ccccc1c2O | 3.37 | 13.1 | 2.88 |  |  | 3.28 | 1.57 | 3.05 | 1.18 | 1.71
25 | COC(=O)c1ccc(-c2nc(C#N)c(N)o2)cc1 | > 100 |  |  | > 100 |  |  |  |  |  | 
26 | CCC1(CC)C(=O)CC[C@@]2(C)C1=CC[C@H]1[C@@H]3CC[C@H](O)[C@@]3(C)CC[C@@H]12 | > 100 | > 100 |  | > 100 | > 100 | > 100 |  |  |  | 
27 | CCN(CC)CCO/N=C1\CC[C@H]2[C@@H]3CC=C4C[C@@H](O)CC[C@]4(C)[C@H]3CC[C@]12C | > 100 |  | 31.7 | > 100 | 58.1 | 31.1 |  |  |  | 
28 | COP(=O)(OC)C(N)CCSC (stereo not given) | > 100 | > 100 |  | > 100 | > 100 | > 100 |  |  |  | 
29 | C/C(O)=C(\C=N\C(N)=S)C(=O)Nc1ccccc1C | > 100 | > 100 | > 100 | > 100 | > 100 | > 100 |  |  |  | 
30 | O=C1NC(=S)N/C1=C/c1ccccc1O | > 100 | > 100 | > 100 | > 100 | > 100 | > 100 |  |  |  | 
31 | CCCCC[C@@H]1OCO[C@@]2(C)/C=C(C)/C=C/C(=O)O[C@H]([C@@H](C)[C@@H](O)[C@H](C)[C@@]3(O)C[C@@H](O[C@H]4C[C@@H](O)[C@H](O)[C@@H](C)O4)[C@H](C)[C@@H](C)O3)[C@@H](OC)/C=C/C=C(\C)C[C@@H]1[C@@H]2O (stereo in doubt) | 1.33 | 0.0992 | 0.745 | 8.22 | 0.203 | < 0.005 |  |  |  | 
32 | CC1(C)COC(c2cccc(C3=NC(C)(C)CO3)c2Br)=N1 | > 100 | > 100 | > 100 | > 100 |  | > 100 |  |  |  | 
